From patent US6660769B1, “N substituted 3-amino-2,2-di-c-alkyl-1,4-butyrolactones and 1,4-thiobutyrolactones for use as promoter of γ-aminobutyric acid activity and for treating nervous disorders and preparation method” (priority 1999, dated 2003)

Legend:
[1] = target: T1, α1β2γ2 recombinant GABA-A receptors (Homo sapiens, UniProt P14867+P18507+P47870); experiment: cell-based; settings: α1β2γ2
T1 construct: expressed in transfected cells; host or cells: Xenopus laevis oocytes injected with cRNA

[2] = target: T2, α1β1 GABA-A recombinant receptors (Homo sapiens, UniProt P14867+P18505); experiment: Two-electrode voltage clamp, modulation of GABA currents in Xenopus oocytes; assay type: cell-based
T2 construct: expressed in transfected cells; host or cells: Xenopus laevis oocytes injected with cRNA
T2 sequence (P14867 28-456): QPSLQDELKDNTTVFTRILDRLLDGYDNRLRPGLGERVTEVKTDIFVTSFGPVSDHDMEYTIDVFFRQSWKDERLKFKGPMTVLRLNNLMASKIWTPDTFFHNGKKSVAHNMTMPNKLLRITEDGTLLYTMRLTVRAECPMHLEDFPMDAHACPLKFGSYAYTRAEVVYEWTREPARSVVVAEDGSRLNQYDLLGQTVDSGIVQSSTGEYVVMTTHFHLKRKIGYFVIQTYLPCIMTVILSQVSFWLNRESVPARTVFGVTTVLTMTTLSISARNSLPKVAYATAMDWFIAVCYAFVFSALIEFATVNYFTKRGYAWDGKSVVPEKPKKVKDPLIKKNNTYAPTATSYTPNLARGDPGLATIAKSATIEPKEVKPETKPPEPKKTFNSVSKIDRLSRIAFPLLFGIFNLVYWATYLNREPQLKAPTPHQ
T2 sequence (P18505 26-474): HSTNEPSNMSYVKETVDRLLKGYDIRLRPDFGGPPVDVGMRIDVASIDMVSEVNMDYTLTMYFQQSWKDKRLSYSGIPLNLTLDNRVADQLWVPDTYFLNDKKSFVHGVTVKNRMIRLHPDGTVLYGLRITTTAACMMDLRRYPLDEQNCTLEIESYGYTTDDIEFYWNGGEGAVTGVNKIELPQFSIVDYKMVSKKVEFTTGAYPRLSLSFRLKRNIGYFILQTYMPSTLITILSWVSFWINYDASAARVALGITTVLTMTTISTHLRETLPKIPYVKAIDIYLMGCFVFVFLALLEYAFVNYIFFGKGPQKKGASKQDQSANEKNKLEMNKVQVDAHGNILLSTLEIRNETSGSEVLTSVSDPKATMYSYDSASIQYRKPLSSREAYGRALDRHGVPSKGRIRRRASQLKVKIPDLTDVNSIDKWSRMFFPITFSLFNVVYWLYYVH
Method: (§1) The compounds synthesized are also studied for their ability to cause opening of the channel of the GABA-A receptor or to allosterically modulate the currents caused by GABA. For this purpose, the GABA-A recombinant receptors are expressed in Xenopus oocytes. Briefly, Xenopus laevis oocytes are prepared, injected and defolliculated and the currents are recorded in the way described (E. Sigel, J. Physiol., 1987, 386, 73 and E. Sigel, R. Baur, G. Trube, H. Möhler, P. Malherbe, Neuron, 1990, 5, 703). The oocytes are injected with 50 nl of cRNA dissolved in 5 mM of K-Hepes (pH 6.8). This solution comprises the transcripts coding for the various subunits at a concentration of 10 nM for α1, 10 nM for β2 and 50 nM for γ2. The RNA transcripts are synthesized from linearized plasmids encoding the desired protein using the message machine kit (Ambion) according to the recommendations of the manufacturers. A poly(A) tail of approximately 300 residues is added to the transcripts using yeast poly(A) polymerase (USB or Amersham). The cRNA combinations are coprecipitated from ethanol and stored at −20° C. The transcripts are quantified on agarose gels, after having been stained with the RNA stain Radiant Red (Bio-Rad), by comparing the intensities of the stainings with various amounts of molecular weight markers (RNA-Ladder, Gibco-BRL). The electrophysiological experiments are carried out by the two-electrode voltage clamp method at a holding potential of −80 mV. The medium comprises 90 mM of NaCl, 1 mM of KCl, 1 mM of MgCl2, 1 mM of CaCl2 and 10 mM of Na-Hepes (pH 7.4). GABA is applied for 20 s and a washing period of 4 min is allowed in order to provide for the complete […]. The perfusion system is cleaned between the applications of the compounds by washing with dimethyl sulfoxide to prevent contamination. The compounds are applied at a concentration of 100 microM in the absence of GABA in order to see whether they can act as channel agonists. To study the allosteric modulation, GABA is first of all applied alone and then in combination with either […] or 100 microM of compounds.
(§2) Thus, it is observed that the compound R-30 (100 μM) produces a 5 times greater stimulation of the GABA currents in the receptors comprising the β2 subunits with respect to the receptors carrying only the β1 subunit (table 4). At 10 μM, the compound R-30 produces a stimulation only in the receptors comprising the β2 subunit. The anticonvulsant loreclezole similarly enhances the activity of the GABA-A receptor by interacting with a site present on the receptors comprising the β2 subunit (and the β3 subunit) but not present on the receptors comprising the β1 subunit (P. B. Wingrove, K. A. Wafford, C. Bain, P. J. Whiting, Proc. Natl. Acad. Sci. USA, 1994, 91, 4569). […] The compounds of the present invention therefore appear to stimulate the activity of GABA by acting on a different site from that of α-EMTBL and related compounds, despite the apparent structural resemblance of these two classes of compounds.

[3] = test system: α2β2 GABA-A recombinant receptors; experiment: as above; assay type: cell-based; settings: for % of stimulation of the GABA currents: α2β2
Method: as §1, §2

[4] = test system: GABA-A receptors comprising β2 or β3 subunits versus β1 subunit; settings: Wingrove et al. 1994; cited from earlier work

T1 sequence (P47870 25-512 limits assumed, one chain of several): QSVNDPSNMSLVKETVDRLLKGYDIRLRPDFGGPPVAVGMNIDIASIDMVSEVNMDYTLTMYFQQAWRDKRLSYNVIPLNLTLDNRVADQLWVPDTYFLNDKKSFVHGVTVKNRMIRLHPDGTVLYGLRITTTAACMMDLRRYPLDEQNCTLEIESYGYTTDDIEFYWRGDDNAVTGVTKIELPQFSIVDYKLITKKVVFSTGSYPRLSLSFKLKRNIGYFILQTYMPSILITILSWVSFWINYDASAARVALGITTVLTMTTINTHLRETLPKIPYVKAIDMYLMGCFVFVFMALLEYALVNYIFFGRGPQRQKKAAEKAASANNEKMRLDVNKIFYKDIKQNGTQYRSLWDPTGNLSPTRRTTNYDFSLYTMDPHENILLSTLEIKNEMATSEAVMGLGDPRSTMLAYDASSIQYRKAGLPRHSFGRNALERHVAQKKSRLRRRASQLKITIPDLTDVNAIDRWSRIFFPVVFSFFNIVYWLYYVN
T1 sequence (P18507 40-475, one chain of several): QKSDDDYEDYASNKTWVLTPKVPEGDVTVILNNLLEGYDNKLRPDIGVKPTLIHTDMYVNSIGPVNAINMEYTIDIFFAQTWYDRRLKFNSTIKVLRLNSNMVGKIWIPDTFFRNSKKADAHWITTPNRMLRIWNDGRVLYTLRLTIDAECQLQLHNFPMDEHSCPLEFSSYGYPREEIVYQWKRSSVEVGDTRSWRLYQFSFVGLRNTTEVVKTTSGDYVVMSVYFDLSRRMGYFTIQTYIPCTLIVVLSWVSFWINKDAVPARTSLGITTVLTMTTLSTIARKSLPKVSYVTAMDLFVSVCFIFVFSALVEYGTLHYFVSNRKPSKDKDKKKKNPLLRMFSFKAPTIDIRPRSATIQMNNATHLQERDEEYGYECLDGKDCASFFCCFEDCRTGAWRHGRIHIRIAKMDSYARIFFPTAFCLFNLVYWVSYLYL

Row | Compound | % of stimulation of the GABA currents ([1]; 10 μM) | % of stimulation of the GABA currents ([1]; 100 μM) | power relative to the corresponding S isomer in stimulating GABA currents [1] | % of stimulation of the GABA currents ([2]; 10 μM) [%] | % of stimulation of the GABA currents ([2]; 100 μM) | % of stimulation of the GABA currents ([3]; 10 μM) | times greater stimulation of the GABA currents in receptors comprising β2 subunits with respect to β1 only ([3]; 100 μM) [times] | % of stimulation of the GABA currents ([3]; 100 μM) | affinity for receptors comprising β2 or β3 subunits relative to receptors comprising the β1 subunit [4] [times]
1 | 3-(R)-Benzyloxycarbonylamino-3,3-di(C-propyl)-1,4-butyrolactone [Compound R-30] | +51 ± 94% | +279 ± 94% | twice as powerful | −5 ± 11 | +92 ± 28% | +78 ± 4% | 5 | +588 ± 166% | 
2 | Cl/C(=C\n1cncn1)c1ccc(Cl)cc1Cl [loreclezole] |  |  |  |  |  |  |  |  | 300
